Reference: ChEMBL document CHEMBL1201862, “PubChem BioAssay data set” (2004)
Calls of active or inactive are those of the source.

Assays:
[1] = target: G-protein coupled receptor 35 (Homo sapiens, UniProt Q9HC97); assay: SAR Analysis for the identification of Selective Antagonists of ERK1/2 Activity in GPR35-Overexpressing U2OS Cells. [Related pubchem assays: 2079, 2058 ]; type: functional, cell-based
[2] = target: G-protein coupled receptor 55 (Homo sapiens, UniProt Q9Y2T6); assay: GPR55 antagonists, SAR follow-up, counter-screen for GPR35 antagonist project, imaging, image-based (AID 2397); type: functional
Sequence of G-protein coupled receptor 55 (Q9Y2T6 whole entry): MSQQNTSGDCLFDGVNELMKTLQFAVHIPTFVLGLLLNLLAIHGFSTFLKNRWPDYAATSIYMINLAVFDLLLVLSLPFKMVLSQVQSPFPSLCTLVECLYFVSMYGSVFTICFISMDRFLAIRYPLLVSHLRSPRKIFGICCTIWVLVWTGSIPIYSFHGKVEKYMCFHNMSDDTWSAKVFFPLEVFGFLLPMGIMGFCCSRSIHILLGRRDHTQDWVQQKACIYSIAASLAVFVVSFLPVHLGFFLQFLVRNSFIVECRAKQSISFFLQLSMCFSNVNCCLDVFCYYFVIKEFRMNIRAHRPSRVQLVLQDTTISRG

Beta-lactamase [3] = target: Beta-lactamase (Pseudomonas aeruginosa, UniProt Q79MP6);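 also: biochemical dose-response test of metallo-beta-lactamase enzyme inhibition, read out by epi-absorbance; purified recombinant IMP-1 metallo-beta-lactamase with nitrocefin as substrate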
Sequence of Beta-lactamase (Pseudomonas aeruginosa, UniProt Q79MP6) (Q79MP6 whole entry): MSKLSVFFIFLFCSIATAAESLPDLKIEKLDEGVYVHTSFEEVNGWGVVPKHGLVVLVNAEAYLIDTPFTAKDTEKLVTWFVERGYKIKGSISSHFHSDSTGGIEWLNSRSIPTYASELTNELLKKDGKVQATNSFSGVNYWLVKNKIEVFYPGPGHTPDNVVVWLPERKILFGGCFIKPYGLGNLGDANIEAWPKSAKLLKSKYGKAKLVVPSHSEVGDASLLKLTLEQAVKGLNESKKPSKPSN

Beta-lactamase [4] = target: Beta-lactamase (Salmonella choleraesuis (strain SC-B67), UniProt Q5J463)
Sequence of Beta-lactamase (Salmonella choleraesuis (strain SC-B67), UniProt Q5J463) (Q5J463 whole entry): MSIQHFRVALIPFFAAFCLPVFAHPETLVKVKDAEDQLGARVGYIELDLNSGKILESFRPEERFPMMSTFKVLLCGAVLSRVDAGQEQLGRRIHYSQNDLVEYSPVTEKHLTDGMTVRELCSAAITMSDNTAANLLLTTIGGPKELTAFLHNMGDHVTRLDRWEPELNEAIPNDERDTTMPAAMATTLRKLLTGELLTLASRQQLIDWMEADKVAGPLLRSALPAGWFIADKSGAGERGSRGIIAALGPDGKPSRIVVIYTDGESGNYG

ORF 73 = ORF 73 (Human herpesvirus 8, UniProt O40947); assay: inhibitors of C-LANA binding to LBS DNA, dose response, biochemical, fluorescence polarization, cherry-picked samples (AID 504725); set-up: species or system Human gammaherpesvirus 8;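 also: fluorescence polarization of a labeled DNA duplex reporting LANA DNA binding; potency is for inhibitors that block LANA binding to the DNA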
Keap1/Nrf2 = Keap1/Nrf2 (Homo sapiens, UniProt Q14145); assay: Keap1-Nrf2 protein-protein interaction inhibitors, dose response, biochemical, fluorescence polarization, cherry-picked samples (AID 588683)
[5] = Luminescence Cell-Based Dose Retest to Confirm Inhibitors of Cancer Stem Cells. [Related pubchem assays (depositor defined):AID2717, AID2721]; type: functional; details: Homo sapiens
[6] = cytotoxicity in HMLE control line with eGFP shRNA, dose response, counter-screen for HMLE_sh_ECad selective toxicity project, cell-based, HMLE_sh_eGFP, luminescence (AID 463074); type: functional, Homo sapiens;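 also: HMLE human mammary epithelial cells expressing control shRNA against eGFP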
[7] = target: Bifunctional protein GlmU (Mycobacterium tuberculosis, UniProt P9WMN3); assay: Inhibitors of Mycobacterial Glucosamine-1-phosphate acetyl transferase (GlmU). Secondary screen.; set-up: species or system Mycobacterium tuberculosis H37Rv
Sequence of Bifunctional protein GlmU (P9WMN3 whole entry): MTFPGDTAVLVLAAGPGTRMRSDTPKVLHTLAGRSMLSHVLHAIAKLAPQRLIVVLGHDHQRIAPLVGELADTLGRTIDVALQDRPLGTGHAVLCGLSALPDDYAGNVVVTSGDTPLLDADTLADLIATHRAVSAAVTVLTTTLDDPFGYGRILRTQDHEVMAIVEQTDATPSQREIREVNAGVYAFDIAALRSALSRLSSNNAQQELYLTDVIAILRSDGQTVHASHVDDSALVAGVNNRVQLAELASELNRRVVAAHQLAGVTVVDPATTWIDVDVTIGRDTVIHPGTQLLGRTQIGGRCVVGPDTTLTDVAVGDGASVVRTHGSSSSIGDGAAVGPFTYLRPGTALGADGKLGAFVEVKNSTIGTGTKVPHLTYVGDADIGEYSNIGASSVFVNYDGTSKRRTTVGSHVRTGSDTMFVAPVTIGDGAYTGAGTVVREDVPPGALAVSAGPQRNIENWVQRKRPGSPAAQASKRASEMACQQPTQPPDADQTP

[8] = target: DNA dC->dU-editing enzyme APOBEC-3A (Homo sapiens, UniProt P31941); assay: APOBEC3A DNA deaminase inhibitors, dose response, biochemical (AID 504722); type: functional
Sequence of DNA dC->dU-editing enzyme APOBEC-3A (P31941 whole entry): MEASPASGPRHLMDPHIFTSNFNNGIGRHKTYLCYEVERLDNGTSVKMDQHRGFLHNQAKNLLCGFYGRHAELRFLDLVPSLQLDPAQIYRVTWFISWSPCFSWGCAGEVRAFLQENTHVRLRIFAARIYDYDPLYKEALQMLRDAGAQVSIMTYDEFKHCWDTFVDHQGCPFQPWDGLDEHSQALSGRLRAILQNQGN

[9] = target: DNA dC->dU-editing enzyme APOBEC-3G (Homo sapiens, UniProt Q9HC16); assay: Dose Response confirmation of small molecule APOBEC3G DNA Deaminase Inhibitors via a fluorescence-based single-stranded DNA deaminase assay. [Related pubchem assays (depositor defined):AID493012, AID493028]; type: functional
Sequence of DNA dC->dU-editing enzyme APOBEC-3G (Q9HC16 whole entry): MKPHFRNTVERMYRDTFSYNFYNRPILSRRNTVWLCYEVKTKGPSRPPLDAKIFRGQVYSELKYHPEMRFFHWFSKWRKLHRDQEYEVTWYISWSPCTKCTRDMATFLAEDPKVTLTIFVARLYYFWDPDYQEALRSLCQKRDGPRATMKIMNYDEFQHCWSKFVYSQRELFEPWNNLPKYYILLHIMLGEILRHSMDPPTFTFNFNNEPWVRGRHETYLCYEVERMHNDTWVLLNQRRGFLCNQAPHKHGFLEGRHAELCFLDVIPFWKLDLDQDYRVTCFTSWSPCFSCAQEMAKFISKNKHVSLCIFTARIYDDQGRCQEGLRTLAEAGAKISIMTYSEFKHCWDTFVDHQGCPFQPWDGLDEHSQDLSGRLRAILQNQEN

[10] = target: T1, Apoptotic protease-activating factor 1 (Homo sapiens, UniProt O14727); assay: activation of Apaf-1 mediated apoptosis – fluorescent, uHTS hits, dose response (AID 588554); type: functional
T1 sequence (O14727 whole entry): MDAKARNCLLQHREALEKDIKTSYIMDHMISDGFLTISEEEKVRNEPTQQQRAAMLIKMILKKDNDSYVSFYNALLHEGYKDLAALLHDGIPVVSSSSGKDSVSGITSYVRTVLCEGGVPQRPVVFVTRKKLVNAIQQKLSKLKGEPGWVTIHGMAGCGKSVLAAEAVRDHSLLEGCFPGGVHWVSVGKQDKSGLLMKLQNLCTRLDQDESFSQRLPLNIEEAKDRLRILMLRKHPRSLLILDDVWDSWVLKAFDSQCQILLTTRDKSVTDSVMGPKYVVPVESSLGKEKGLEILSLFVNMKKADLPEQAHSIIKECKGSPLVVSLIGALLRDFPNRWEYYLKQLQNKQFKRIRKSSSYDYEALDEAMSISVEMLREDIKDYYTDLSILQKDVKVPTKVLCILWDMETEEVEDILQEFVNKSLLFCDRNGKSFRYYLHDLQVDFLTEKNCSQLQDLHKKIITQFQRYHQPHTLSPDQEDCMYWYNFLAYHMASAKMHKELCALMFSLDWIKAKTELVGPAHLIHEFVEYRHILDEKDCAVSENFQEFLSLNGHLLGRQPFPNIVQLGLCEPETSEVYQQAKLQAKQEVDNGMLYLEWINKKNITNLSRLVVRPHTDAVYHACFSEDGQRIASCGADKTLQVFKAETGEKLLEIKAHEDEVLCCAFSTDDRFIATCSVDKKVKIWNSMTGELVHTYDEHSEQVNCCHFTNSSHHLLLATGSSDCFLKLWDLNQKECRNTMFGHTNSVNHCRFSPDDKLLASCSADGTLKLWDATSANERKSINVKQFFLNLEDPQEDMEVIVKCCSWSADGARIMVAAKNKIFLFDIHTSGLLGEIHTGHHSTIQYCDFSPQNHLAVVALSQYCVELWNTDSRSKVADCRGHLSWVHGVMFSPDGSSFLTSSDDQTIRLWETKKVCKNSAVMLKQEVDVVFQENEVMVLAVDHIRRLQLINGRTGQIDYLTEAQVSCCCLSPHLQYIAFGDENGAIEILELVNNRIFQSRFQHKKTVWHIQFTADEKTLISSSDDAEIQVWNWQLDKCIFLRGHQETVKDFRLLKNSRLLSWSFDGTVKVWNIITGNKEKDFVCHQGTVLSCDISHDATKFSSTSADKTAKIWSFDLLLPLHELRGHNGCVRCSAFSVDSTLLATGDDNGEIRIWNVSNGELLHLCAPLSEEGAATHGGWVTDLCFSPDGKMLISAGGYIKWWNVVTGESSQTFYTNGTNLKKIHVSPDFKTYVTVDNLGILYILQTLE

[11] = target: T2, Carboxy-terminal domain RNA polymerase II polypeptide A small phosphatase 1 (Homo sapiens, UniProt Q9GZU7); assay: inhibitors of CTDSP1, concentration-response testing, biochemical assay, absorbance-based, actives from ultra-high-throughput screening (AID 540297); type: functional
T2 sequence (Q9GZU7 whole entry): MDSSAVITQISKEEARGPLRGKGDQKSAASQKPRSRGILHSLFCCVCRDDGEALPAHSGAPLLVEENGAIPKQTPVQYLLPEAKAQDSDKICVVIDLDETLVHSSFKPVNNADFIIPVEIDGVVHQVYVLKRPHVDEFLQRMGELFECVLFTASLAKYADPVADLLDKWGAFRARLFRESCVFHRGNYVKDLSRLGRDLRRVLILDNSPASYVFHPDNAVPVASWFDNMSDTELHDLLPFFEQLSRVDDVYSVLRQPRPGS

[12] = target: DNA (cytosine-5)-methyltransferase 1 (Homo sapiens, UniProt P26358); assay: DNMT1 methyltransferase inhibitors, confirmation, biochemical, fluorescent molecular beacon (AID 602386); type: functional
Sequence of DNA (cytosine-5)-methyltransferase 1 (P26358 whole entry): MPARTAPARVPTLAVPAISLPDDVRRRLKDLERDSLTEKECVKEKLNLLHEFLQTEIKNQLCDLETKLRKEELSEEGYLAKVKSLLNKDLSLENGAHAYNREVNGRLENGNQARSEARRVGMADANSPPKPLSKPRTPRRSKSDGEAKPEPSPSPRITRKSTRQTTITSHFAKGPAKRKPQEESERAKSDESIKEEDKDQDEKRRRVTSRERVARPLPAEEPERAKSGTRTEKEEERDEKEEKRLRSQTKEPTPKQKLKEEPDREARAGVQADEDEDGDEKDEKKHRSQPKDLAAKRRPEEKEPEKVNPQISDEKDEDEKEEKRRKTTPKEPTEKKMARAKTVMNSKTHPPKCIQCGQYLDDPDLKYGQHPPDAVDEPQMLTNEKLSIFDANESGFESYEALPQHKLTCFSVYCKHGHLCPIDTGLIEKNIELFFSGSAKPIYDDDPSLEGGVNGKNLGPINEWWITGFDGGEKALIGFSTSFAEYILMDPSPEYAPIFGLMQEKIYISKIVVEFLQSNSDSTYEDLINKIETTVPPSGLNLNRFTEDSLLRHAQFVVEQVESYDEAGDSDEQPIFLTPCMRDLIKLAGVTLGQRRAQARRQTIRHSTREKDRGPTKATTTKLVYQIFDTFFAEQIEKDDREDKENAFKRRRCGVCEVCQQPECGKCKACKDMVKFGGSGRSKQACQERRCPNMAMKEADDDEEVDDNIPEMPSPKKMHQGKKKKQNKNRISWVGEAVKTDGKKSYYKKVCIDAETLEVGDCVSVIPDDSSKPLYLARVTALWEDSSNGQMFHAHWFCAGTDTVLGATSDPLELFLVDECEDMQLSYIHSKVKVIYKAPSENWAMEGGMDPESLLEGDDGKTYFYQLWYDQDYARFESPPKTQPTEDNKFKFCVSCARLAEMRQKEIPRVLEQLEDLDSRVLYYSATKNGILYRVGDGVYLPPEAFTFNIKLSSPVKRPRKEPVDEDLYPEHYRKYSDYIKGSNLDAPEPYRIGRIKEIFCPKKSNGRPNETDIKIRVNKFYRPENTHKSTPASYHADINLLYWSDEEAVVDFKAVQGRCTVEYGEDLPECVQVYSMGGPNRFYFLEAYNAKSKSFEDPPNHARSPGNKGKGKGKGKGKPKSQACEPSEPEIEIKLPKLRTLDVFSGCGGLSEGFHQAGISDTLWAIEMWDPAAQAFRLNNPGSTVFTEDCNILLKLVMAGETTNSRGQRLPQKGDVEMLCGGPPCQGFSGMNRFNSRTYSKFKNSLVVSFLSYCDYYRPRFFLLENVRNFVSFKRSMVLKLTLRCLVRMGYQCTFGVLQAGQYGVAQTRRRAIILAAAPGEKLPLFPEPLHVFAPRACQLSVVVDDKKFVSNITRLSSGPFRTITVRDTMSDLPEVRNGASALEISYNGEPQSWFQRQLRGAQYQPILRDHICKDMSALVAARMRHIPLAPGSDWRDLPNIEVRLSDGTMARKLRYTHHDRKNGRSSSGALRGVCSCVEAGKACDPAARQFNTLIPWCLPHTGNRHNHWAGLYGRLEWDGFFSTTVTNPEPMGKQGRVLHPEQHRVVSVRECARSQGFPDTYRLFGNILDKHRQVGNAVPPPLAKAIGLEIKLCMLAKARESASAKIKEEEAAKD

[13] = target: T3, Small ubiquitin-related modifier 1 (Homo sapiens, UniProt P63165); assay: inhibitors of SUMO1 peptide binding, dose response, biochemical, fluorescence polarization, uHTS hits (AID 624382); type: functional; details: read-out: IC50_Mean
T3 sequence (P63165 whole entry): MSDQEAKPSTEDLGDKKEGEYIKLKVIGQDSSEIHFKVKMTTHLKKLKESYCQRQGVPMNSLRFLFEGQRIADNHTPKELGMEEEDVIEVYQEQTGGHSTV

[14] = target: T3, Small ubiquitin-related modifier 1; assay: inhibitors of SUMO1 partner interactions, dose response, biochemical, FRET (AID 624383); type: functional; details: read-out: IC50_Mean

Sequence of G-protein coupled receptor 35 (Q9HC97 whole entry): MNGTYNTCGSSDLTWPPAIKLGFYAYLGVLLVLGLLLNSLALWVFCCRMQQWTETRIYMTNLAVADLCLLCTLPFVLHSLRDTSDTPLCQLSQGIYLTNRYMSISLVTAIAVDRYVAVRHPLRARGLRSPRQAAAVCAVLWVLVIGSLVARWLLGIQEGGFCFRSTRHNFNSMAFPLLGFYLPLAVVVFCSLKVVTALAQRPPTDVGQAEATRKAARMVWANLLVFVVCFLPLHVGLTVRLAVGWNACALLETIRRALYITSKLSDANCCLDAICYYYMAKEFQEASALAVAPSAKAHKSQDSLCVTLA

CCOc1ccc(NC(=O)CSc2nc3ccsc3c(=O)n2Cc2ccc(C(=O)O)cc2)cc1
IC50 [1]: 14.5 µM (not active)
IC50 [2]: > 32 µM (inactive)

Nc1ccc2c3c(cccc13)C(=O)N(c1ccccc1)C2=O
IC50 (Beta-lactamase [3]): 12.7 µM (inactive)
IC50 (Beta-lactamase [4]): 4.41 µM (active)
AC50 (ORF 73): 5.56 µM (active)
AC50 (Keap1/Nrf2): 1.4 µM (active)

Oc1ccccc1C1CC(c2cccs2)=NC(c2cccc(Br)c2)N1 (stereo unspecified)
AC50 [5]: 21.1 µM (active)
AC50 [6]: 23.9 µM (active)

C=C(C)C(=O)Nc1cccc(C2=NOC3(C2)C[C@H](C(N)=O)N(C(=O)COc2ccc(Cl)cc2)C3)c1 (stereo partly specified)
IC50 [7]: 118 µM (active)
IC50 [8]: > 100 µM (inactive)
IC50 [9]: 7.21 µM (active)
EC50 [10]: 4.23 µM (active)
IC50 [11]: 3.74 µM (active)
IC50 [12]: 5.52 µM (active)
IC50 [13]: > 66.6 µM (inactive)
IC50 [14]: 1.94 µM (active)
